In ChEMBL document CHEMBL5653615 (J Biol Chem, 2013):

Assays:
[1] = target: Mitogen-activated protein kinase 3 (Homo sapiens) (UniProt P27361); assay: Inhibition of human ERK1 at 500 nM by HotSpot assay relative to control
[2] = target: Ephrin type-A receptor 5 (Homo sapiens) (UniProt P54756); assay: Inhibition of human EPHA5 at 500 nM by HotSpot assay relative to control
[3] = target: Tyrosine-protein kinase Srms (Homo sapiens) (UniProt Q9H3Y6); assay: Inhibition of human SRMS at 500 nM by HotSpot assay relative to control
[4] = target: Mitogen-activated protein kinase kinase kinase 10 (Homo sapiens) (UniProt Q02779); assay: Inhibition of human MAP3K10 at 500 nM by HotSpot assay relative to control
[5] = target: Tyrosine-protein kinase Fgr (Homo sapiens) (UniProt P09769); assay: Inhibition of human FGR at 500 nM by HotSpot assay relative to control
[6] = target: Homeodomain-interacting protein kinase 1 (Homo sapiens) (UniProt Q86Z02); assay: Inhibition of human HIPK1 at 500 nM by HotSpot assay relative to control
[7] = target: Serine/threonine-protein kinase pim-3 (Homo sapiens) (UniProt Q86V86); assay: Inhibition of human PIM3 at 500 nM by HotSpot assay relative to control
[8] = target: Macrophage-stimulating protein receptor (Homo sapiens) (UniProt Q04912); assay: Inhibition of human MST1R at 500 nM by HotSpot assay relative to control
[9] = target: Insulin-like growth factor 1 receptor (Homo sapiens, UniProt P08069); assay: Inhibition of human IGF1R at 500 nM by HotSpot assay relative to control
[10] = target: T1, Serine/threonine-protein kinase ULK1 (Homo sapiens) (UniProt O75385); assay: Inhibition of human ULK1 at 500 nM by HotSpot assay relative to control
T1 sequence (whole entry): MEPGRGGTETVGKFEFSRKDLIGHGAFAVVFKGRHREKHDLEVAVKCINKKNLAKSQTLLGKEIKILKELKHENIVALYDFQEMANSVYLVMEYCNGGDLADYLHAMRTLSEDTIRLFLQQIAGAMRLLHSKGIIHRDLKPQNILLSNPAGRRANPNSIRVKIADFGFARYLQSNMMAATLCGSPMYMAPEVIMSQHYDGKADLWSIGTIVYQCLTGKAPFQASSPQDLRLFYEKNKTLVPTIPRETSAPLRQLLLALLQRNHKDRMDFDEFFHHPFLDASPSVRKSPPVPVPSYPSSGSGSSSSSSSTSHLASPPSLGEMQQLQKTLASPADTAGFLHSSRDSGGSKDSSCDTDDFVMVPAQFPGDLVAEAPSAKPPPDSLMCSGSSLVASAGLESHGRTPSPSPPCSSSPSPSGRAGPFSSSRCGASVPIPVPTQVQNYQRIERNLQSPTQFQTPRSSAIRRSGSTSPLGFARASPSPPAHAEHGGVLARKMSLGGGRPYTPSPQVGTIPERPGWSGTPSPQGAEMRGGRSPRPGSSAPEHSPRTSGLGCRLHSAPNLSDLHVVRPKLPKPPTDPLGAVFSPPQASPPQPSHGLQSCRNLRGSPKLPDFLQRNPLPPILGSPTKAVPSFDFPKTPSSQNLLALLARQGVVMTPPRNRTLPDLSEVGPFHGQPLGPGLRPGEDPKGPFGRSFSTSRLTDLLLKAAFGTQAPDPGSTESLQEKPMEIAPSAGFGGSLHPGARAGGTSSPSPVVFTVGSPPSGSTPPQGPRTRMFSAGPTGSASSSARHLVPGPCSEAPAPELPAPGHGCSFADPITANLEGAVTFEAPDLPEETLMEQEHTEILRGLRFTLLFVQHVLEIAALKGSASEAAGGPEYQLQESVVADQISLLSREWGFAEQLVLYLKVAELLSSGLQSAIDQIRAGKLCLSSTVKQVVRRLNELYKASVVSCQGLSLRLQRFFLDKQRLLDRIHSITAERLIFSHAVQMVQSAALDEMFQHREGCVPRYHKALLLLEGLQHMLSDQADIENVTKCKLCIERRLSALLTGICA

[11] = target: Protein kinase C beta type (Homo sapiens) (UniProt P05771); assay: Inhibition of human PKCb2 at 500 nM by HotSpot assay relative to control
[12] = target: Cyclin-dependent kinase 1/cyclin B1 (Homo sapiens) (UniProt P06493+P14635); assay: Inhibition of human CDK1/cyclin B at 500 nM by HotSpot assay relative to control; assay type: protein-complex assay
[13] = target: Tyrosine-protein kinase Blk (Homo sapiens) (UniProt P51451); assay: Inhibition of human BLK at 500 nM by HotSpot assay relative to control
[14] = target: Casein kinase II subunit alpha' (Homo sapiens) (UniProt P19784); assay: Inhibition of human CK2a2 at 500 nM by HotSpot assay relative to control
[15] = target: Cyclin-dependent kinase 5/CDK5 activator 1 (Homo sapiens) (UniProt Q00535+Q15078); assay: Inhibition of human CDK5/p25 at 500 nM by HotSpot assay relative to control; assay type: protein-complex assay
[16] = target: T2, Inhibitor of nuclear factor kappa-B kinase subunit alpha (Homo sapiens) (UniProt O15111); assay: Inhibition of human IKKa at 500 nM by HotSpot assay relative to control
T2 sequence (whole entry): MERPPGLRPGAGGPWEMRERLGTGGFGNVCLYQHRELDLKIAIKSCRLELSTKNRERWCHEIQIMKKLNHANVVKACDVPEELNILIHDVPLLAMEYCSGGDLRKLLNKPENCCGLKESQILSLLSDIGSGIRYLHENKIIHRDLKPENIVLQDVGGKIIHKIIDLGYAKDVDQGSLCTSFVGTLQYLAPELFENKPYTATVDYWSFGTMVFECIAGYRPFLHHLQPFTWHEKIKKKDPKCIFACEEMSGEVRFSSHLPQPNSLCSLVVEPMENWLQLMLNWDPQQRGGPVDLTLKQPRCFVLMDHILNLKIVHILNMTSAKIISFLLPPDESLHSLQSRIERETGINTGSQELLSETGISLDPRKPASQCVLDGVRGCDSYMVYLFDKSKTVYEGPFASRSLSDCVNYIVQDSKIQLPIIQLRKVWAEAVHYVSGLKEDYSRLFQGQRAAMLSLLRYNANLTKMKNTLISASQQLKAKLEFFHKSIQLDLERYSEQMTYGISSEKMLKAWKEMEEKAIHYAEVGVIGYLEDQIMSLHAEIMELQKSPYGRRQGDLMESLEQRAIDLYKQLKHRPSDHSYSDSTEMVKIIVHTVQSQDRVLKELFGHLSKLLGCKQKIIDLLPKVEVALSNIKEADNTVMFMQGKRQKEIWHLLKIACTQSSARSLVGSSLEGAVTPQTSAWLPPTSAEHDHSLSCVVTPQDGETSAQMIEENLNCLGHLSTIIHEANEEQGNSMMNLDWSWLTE

[17] = target: Hepatocyte growth factor receptor (Homo sapiens) (UniProt P08581); assay: Inhibition of human c-MET at 500 nM by HotSpot assay relative to control

Cyclin-dependent kinase 5/CDK5 activator 1 (Homo sapiens), sequence (Q00535 whole entry): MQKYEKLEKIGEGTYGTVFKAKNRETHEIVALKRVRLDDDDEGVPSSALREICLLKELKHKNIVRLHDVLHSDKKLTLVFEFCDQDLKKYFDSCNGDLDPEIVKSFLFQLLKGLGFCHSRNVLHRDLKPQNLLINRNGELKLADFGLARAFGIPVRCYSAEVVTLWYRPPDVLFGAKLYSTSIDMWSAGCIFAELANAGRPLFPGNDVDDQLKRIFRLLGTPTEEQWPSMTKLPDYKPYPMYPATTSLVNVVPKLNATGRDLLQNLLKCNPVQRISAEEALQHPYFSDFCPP
Cyclin-dependent kinase 5/CDK5 activator 1 (Homo sapiens), sequence (Q15078 99-307 partner limits assumed): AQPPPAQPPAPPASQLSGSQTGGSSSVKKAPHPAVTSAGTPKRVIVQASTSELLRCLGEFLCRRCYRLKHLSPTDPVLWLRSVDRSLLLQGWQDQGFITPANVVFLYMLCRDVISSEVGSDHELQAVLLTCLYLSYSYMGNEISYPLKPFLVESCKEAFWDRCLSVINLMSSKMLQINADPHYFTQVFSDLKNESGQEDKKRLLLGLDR
Mitogen-activated protein kinase 3 (Homo sapiens), sequence (P27361 whole entry): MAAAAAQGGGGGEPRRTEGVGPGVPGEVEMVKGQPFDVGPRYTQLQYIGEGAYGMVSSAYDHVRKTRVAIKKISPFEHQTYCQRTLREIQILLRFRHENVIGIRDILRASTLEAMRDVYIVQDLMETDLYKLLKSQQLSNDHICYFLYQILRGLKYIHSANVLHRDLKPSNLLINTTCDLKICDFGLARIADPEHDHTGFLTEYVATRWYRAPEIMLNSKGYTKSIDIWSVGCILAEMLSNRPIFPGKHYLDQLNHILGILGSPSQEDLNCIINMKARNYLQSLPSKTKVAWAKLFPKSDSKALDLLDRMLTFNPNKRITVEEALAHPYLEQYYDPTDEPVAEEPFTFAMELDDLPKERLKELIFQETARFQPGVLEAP
Tyrosine-protein kinase Srms (Homo sapiens), sequence (Q9H3Y6 whole entry): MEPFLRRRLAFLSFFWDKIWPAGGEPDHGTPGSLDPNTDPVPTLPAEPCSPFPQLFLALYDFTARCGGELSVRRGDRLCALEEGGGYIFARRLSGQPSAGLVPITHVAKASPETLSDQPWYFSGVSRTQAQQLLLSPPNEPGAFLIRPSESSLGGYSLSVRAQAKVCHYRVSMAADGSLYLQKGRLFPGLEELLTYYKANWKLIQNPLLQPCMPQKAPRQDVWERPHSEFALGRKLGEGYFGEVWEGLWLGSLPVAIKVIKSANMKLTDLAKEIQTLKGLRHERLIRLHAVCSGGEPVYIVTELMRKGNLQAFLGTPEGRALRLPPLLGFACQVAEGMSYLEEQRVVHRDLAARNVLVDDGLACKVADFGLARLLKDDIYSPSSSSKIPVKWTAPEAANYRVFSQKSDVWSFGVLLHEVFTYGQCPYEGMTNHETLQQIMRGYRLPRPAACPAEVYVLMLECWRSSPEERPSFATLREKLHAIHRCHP
Protein kinase C beta type (Homo sapiens), sequence (P05771 2-671 limits assumed): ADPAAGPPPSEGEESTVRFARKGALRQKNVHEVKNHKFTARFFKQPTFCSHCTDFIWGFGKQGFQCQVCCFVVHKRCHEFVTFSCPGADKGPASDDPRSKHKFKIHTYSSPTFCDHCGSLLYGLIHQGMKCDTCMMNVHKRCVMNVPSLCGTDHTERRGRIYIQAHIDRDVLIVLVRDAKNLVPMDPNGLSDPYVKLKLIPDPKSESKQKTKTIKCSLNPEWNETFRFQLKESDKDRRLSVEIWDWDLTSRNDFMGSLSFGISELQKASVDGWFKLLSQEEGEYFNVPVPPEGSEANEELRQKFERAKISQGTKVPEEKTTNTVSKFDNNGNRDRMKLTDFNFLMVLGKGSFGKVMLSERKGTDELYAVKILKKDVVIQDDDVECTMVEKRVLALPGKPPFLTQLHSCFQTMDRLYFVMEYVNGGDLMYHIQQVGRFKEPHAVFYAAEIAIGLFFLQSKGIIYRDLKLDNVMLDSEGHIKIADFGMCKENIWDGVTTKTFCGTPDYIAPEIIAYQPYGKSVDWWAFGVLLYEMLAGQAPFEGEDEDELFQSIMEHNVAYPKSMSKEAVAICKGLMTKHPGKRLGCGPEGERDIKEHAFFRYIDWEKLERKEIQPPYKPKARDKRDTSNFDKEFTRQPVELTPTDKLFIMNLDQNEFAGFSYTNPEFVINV
Tyrosine-protein kinase Fgr (Homo sapiens), sequence (P09769 2-529 limits assumed): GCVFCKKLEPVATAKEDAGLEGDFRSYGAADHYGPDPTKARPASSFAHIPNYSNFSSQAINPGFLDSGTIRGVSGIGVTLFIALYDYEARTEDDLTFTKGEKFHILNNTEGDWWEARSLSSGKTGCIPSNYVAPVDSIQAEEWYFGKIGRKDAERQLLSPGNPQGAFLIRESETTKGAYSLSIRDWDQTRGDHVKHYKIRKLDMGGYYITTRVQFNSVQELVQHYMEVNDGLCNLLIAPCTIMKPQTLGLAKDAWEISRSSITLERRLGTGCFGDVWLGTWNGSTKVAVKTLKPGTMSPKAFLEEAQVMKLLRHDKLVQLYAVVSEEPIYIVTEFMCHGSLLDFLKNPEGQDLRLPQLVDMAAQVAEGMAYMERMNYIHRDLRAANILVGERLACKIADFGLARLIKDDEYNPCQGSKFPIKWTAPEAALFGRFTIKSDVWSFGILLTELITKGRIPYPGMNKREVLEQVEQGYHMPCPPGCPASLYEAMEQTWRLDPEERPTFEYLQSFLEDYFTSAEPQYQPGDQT
Ephrin type-A receptor 5 (Homo sapiens), sequence (P54756 whole entry): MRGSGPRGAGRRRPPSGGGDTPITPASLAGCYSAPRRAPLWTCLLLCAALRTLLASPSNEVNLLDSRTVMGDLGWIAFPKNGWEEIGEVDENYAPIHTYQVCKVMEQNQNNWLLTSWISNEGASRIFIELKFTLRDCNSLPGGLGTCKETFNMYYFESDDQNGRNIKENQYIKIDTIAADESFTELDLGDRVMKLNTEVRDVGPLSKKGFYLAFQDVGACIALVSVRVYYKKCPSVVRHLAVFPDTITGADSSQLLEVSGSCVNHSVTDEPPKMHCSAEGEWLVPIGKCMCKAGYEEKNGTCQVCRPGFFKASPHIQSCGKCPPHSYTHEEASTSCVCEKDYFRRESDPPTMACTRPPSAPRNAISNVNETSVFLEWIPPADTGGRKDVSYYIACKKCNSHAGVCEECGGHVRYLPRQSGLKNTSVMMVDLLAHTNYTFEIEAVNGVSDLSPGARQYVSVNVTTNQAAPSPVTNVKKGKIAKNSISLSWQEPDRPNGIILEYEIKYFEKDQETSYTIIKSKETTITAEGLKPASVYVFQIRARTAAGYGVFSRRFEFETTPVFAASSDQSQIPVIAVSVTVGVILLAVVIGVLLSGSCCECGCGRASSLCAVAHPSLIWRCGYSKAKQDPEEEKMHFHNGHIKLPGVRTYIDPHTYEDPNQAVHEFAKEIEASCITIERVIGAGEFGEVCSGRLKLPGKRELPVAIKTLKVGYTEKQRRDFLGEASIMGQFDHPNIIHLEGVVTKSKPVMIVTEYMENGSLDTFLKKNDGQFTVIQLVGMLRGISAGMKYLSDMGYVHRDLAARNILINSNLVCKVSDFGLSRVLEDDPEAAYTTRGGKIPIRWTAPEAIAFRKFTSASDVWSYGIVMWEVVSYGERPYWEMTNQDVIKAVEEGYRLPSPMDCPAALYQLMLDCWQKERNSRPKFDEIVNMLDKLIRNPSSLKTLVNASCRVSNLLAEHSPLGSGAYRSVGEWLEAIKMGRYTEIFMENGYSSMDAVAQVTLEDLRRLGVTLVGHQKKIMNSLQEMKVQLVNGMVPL
Casein kinase II subunit alpha' (Homo sapiens), sequence (P19784 whole entry, looked up): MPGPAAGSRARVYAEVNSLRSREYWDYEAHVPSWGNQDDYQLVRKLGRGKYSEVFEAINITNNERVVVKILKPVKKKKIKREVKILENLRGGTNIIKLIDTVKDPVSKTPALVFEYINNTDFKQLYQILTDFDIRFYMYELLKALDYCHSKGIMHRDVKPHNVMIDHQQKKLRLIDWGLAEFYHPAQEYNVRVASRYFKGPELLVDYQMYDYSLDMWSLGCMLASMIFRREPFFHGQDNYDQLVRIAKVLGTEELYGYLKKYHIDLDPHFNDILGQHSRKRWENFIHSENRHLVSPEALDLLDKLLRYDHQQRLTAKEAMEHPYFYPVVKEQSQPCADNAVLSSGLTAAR
Tyrosine-protein kinase Blk (Homo sapiens), sequence (P51451 2-505 limits assumed): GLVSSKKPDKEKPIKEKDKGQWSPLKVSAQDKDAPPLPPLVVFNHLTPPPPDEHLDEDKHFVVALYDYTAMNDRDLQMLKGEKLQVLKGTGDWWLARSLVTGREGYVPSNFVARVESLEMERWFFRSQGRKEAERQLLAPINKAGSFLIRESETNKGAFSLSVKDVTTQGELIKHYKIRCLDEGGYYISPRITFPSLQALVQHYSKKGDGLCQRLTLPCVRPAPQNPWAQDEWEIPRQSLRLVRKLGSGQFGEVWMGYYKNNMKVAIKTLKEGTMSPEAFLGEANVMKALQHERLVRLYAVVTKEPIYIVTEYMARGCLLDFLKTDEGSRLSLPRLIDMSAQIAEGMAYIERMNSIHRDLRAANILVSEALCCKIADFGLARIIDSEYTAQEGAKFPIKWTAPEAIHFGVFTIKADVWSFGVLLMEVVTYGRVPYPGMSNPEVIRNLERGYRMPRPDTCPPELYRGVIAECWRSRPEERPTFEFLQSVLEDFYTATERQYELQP

Row | SMILES | inhibition [1] | inhibition [2] | inhibition [3] | inhibition [4] | inhibition [5] | inhibition [6] | inhibition [7] | inhibition [8] | inhibition [9] | inhibition [10] | inhibition [11] | inhibition [12] | inhibition [13] | inhibition [14] | inhibition [15] | inhibition [16] | inhibition [17]
1 | Nc1n[nH]c2nnc(-c3c(-c4ccccc4)nn4ccccc34)cc12 | 34.2% | -0.54% | 7.04% | 9.29% | 7.1% | -4.88% | -0.43% | -1.66% | -1.88% | 2.87% | 0.34% | 9.79% | 1.92% | 6.59% | -0.57% | 2.52% | 5.04%
2 | Oc1n[nH]c2nnc(-c3c(-c4ccccc4)nn4ccccc34)cc12 | -2.01% | -0.84% | 0.83% | 5.25% | -0.49% | -1.71% | -0.71% | -6.32% | -4.89% | 0.87% | -2.98% | 9.98% | 2.09% | 6.97% | 1.29% | -0.4% | 4.83%
